According to PMC7150766 (Viruses, 2020):

Columns and labels:
[1] = test system: splenocytes from CVB4-infected A/J mice; assay: Proliferative response of splenocytes from CVB4-infected mice; format: cell-based; conditions: peptide 2 days, then 3[H] thymidine 16 h, p ≤ 0.01 for VP1 721–740, Figure 6a
[2] = test system: LNCs and splenocytes from immunized mice; assay: Proliferative response, whole cells from VP1 peptide-immunized mice; format: cell-based, A/J mice

VNTFVHESLADVQA [RNase 43–56, bovine ribonuclease (RNase) 43–56, irrelevant control peptide]
Proliferative response (in words) [1]: the cells did not respond to control | Proliferative response (in words) [2]: the cells did not react to control
